Results from patent US7745436B2, “Disalt inhibitors of IL-12 production” (Synta Pharmaceuticals Corporation, priority 2004, dated 2010).

How the values were obtained:
[1] = Solubility determination in water (vortex, sonication at ~50° C, HPLC of supernatant); type: physicochemical; details: for Solubility: water, vortexed and sonicated ~5-10 min at ~50° C, HPLC
Description: The disalts described herein can have a relatively high solubility, e.g., water solubility. As used herein, the “solubility” of a disalt in a solvent refers to the maximum mass of a disalt that can be dissolved per unit volume of the solvent under accelerated dissolution conditions (50-60° C. with concommitant ultrasonic agitation of the disalt/solvent test sample). Unless otherwise indicated, solubility data is expressed in terms of units of milligrams (mg)/milliliter (mL), e.g., mg/mL.
The compound was weighed, and water was added to it such that the ratio of the sample and water of the mixture would be 100 mg/mL. The mixture was then shaken using a Vortex-Genie2 shaker (vortexed) and sonicated (˜5-10 min at ˜50° C). If a clear solution has been obtained, more compound was added to the solution, and a mixture was vortexed and sonicated until a homogeneous suspension was achieved. The suspension was then centrifuged at 10,000 rpm for about 10 min. The supernatant was taken out and diluted with 50/50 (v/v) EtOH/water, then the sample was analyzed by HPLC to determine the concentration.
The HPLC system consisted of the HP 1100 Model (Agilent, Wilmington, Del.) equipped with a model 1100 quaternary pump, a model 1100 autosampler, a model 1100 Diode-Array Detector for UV detection at 320 nm. The HPLC analysis was performed using an isocratic mobile phase consisting of acetonitrile-water containing 10 mM NH4OAc . Mobile phases were degassed and filtered through a solvent filtration apparatus and pumped at a constant rate of 1.0 mL/min. The separation was made on an XTerra MS C18 analytical column, 4.6 mm i.d.×150 mm, (Waters Corp., Milford, Mass., USA) fitted with a precolumn filter (XTerra MS C18, 3.9 mm×20mm). The column was maintained at 30° C. Data acquisition and instrument setting were controlled using HP Chemstation software (ver.8.03).

[2] = Solubility in water at fixed concentrations (5 mg per 0.1, 0.2 or 0.25 mL); type: physicochemical

Row | Structure (SMILES) | melting point | Solubility [1] | other results
1 | C(=NNc1cc(N2CCOCC2)nc(OCCc2ccccn2)n1)c1c[nH]c2ccccc12 | 160 to 165 °C |  | 
2 | CN(N=Cc1c[nH]c2ccccc12)c1cc(N2CCOCC2)nc(OCCc2ccccn2)n1 | 130 to 140 °C |  | 
3 | Cc1cccc(C=NNc2nc(OCCc3ccccn3)nc(N3CCOCC3)n2)c1 | 143 to 147 °C |  | 
4 | C(=NNc1nc(OCCc2ccccn2)nc(N2CCOCC2)n1)c1c[nH]c2ccccc12 | 158 to 161 °C |  | 
5 | CS(=O)(=O)O.Cc1cccc(C=NNc2cc(N3CCOCC3)nc(OCCc3ccccn3)n2)c1 [{[(1)(1H^+)]^1+•[1(CH3SO3^−)]^1−}, N-(3-Methyl-benzylidene)-N′-[6-morpholin-4-yl-2-(2-pyridin-2-yl-ethoxy)-pyrimidin-4-yl]-hydrazine 1 methanesulfonate (mesylate)] |  | 52.0 ± 0.1 mg/mL | 
6 | Cc1cccc(C=NNc2cc(N3CCOCC3)nc(OCCc3ccccn3)n2)c1.Cl [{[(1)(2H^+)]^1+•[1(Cl^−)]^1−}, N-(3 -Methyl-benzylidene)-N′-[6-morpholin-4-yl-2-(2-pyridin-2-yl-ethoxy)-pyrimidin-4-yl]-hydrazine (1) hydrochloride] |  | 12.6 ± 0.4 mg/mL | 
7 | CS(=O)(=O)O.CS(=O)(=O)O.Cc1cccc(C=NNc2cc(N3CCOCC3)nc(OCCc3ccccn3)n2)c1 [{[(1)(2H^+)]^2+•[2(CH3SO3^−)]^2−}, N-(3-Methyl-benzylidene)-N′-[6-morpholin-4-yl-2-(2-pyridin-2-yl-ethoxy)-pyrimidin-4-yl]-hydrazine (1) dimethanesulfonate (dimesylate)] |  | 831 ± 5 mg/mL | solubility of disalt relative to the solubility of the corresponding monosalt ([1]; versus monosalt {[(1)(1H^+)]^1+.[1(CH3SO3^−)]}): more than ten times greater
8 | Cc1cccc(C=NNc2cc(N3CCOCC3)nc(OCCc3ccccn3)n2)c1.Cl.Cl [{[(1)(2H^+)]^2+•[2(Cl^−)]^2−}, N-(3-Methyl-benzylidene)-N′-[6-morpholin-4-yl-2-(2-pyridin-2-yl-ethoxy)-pyrimidin-4-yl]-hydrazine (1) dihydrogenchloride (dichloride)] |  | 213 ± 5 mg/mL | solubility in water at a concentration of 5 mg/0.1 mL [2]: soluble
9 | Cc1cccc(C=NNc2cc(N3CCOCC3)nc(OCCc3ccccn3)n2)c1.O=[N+]([O-])O.O=[N+]([O-])O [{[(1)(2H^+)]^2+•[2(NO3^−)]^2−}, N-(3-Methyl-benzylidene)-N′-[6-morpholin-4-yl-2-(2-pyridin-2-yl-ethoxy)-pyrimidin-4-yl]-hydrazine (1) dinitrate] |  | 83.4 ± 0.2 mg/mL | solubility in water at a concentration of 5 mg/0.1 mL [2]: insoluble; solubility in water at a concentration of 5 mg/0.2 mL ([2]; 5 mg/0.2 mL): partially soluble; solubility in water at a concentration of 5 mg/0.25 mL ([2]; 5 mg/0.25 mL): partially soluble
10 | C(=NNc1cc(N2CCOCC2)nc(OCCc2ccccn2)n1)c1c[nH]c2ccccc12.CS(=O)(=O)O.CS(=O)(=O)O [{[(2)(2H^+)]^2+•[2(CH3SO3^−)]^2−}, N-(1H-indol-3-ylmethylene)—N′-[6-morpholin-4-yl-2-(2-pyridin-2-yl-ethoxy)-pyrimidin-4-yl]-hydrazine (2) dimethanesulfonate (dimesylate)] |  | 454 ± 5 mg/mL | 
11 | CN(N=Cc1c[nH]c2ccccc12)c1cc(N2CCOCC2)nc(OCCc2ccccn2)n1.CS(=O)(=O)O.CS(=O)(=O)O [{[(3)(2H^+)]^2+•[2(CH3SO3^−)]^2−}, N′-(1H-indol-3-ylmethylene)-N-methyl-N-[6-morpholin-4-yl-2-(2-pyridin-2-yl-ethoxy)-pyrimidin-4-yl]-hydrazine (3) dimesylate] |  | 306 ± 14 mg/mL | 
